Experimental data reported in patent US20240368177A1, “5-AMINO-6,8-DIHYDRO-1H-FURO[3,4-d]PYRROLO[3,2-b]PYRIDINE-2-CARBOXAMIDE DERIVATIVES AS MTA-COOPERATIVE INHIBITORS OF PRMT5” (BeiGene Switzerland GmbH, priority 2023, published 2024).

Experiments:
[1] = tested on: HCT116-mock-RNA-KO; test: Cell killing in HCT116 isogenic pair (Cell Titer-Glo viability), mock knock-out cells with MTAP wildtype genotype; format: cell-based, human; settings: Homo sapiens, HCT-116, 144 h, 6 days incubation, 0-10 μM
From the text: (§1) HCT116 cell line (ATCC, CCL-247) was isolated from the colon of an adult with colon cancer. It has a mutation in codon 13 of the ras proto-oncogene and can be used as a positive control for PCR assays of mutation in this codon. HCT116-MTAP-KO was knocked-out-MTAP-gene based HCT116, and a single clone was passed for this assay. HCT116-mock-RNA-KO was knocked-out-mock-gene based HCT116 with MTAP wildtype genotype. The base medium for HCT116 isogenic pair is RPMI 1640, HEPES (Gibco, 22400105). To make the complete growth medium, added the following components to the base medium: fetal bovine serum to a final concentration of 10% (Gibco, 10099-141C). The cell line was grown in a humidified 5% CO2 atmosphere at 37° C. and regularly tested for the presence of mycoplasma with MpcoAlert™ PLUS Mycoplasma Detection Kit (Lonzak LT07-710).
(§2) • Seeded HCT116-mock-RNA-KO (4E2/well) or HCT116-MTAP-KO (4E2/well) cells into a 96-well plate (Greiner: 655090), 100 μL/well. • Incubated at 37° C., 5% CO2, overnight. • Added 50 μL fresh growth medium containing serial dilution of test compounds for a final test compound concentration of 0-10 μM to each well. • Incubated at 37° C., 5% CO2, 6 days. • The cell viability was detected by Cell Titer-Glo (Promega, G7573). Added 70 μL of CeliTiter-Glo® reagent in each well. • Incubated at room temperature for 10 minutes to stabilize luminescent signal. • Analyzed with Microplate Reader (TECAN, SPARK) and fit IC50 using Prism® 9.

[2] = tested on: HCT116-MTAP-KO; test: Cell killing in HCT116 isogenic pair (Cell Titer-Glo viability), MTAP knock-out cells; format: cell-based, human; settings: Homo sapiens, HCT-116, 144 h, 6 days incubation, 0-10 μM, * = more than 50% viability inhibition at tested concentration without a full curve
From the text: as §1, §2

SMILES: CO[C@@H]1CCOC[C@H]1N(Cc1ccc(-c2c(F)cccc2F)cn1)C(=O)c1cc2nc(N)c3c(c2[nH]1)CO[C@@H]3C [Example 23, (R)-5-amino-N-((5-(2,6-difluorophenyl)pyridin-2-yl)methyl)-N-((3R,4R)-4-methoxytetrahydro-2H-pyran-3-yl)-6-methyl-6,8-dihydro-1H-furo[3,4-d]pyrrolo[3,2-b]pyridine-2-carboxamide]
- IC50 [1]: 81 nM
- IC50 [2]: 4.8 nM

SMILES: CO[C@@H]1CCOC[C@H]1N(Cc1ccc(-c2c(F)cccc2F)cn1)C(=O)c1cc2nc(N)c3c(c2[nH]1)CO[C@H]3C [Example 24, (S)-5-amino-N-((5-(2,6-difluorophenyl)pyridin-2-yl)methyl)-N-((3R,4R)-4-methoxytetrahydro-2H-pyran-3-yl)-6-methyl-6,8-dihydro-1H-furo[3,4-d]pyrrolo[3,2-b]pyridine-2-carboxamide]
- IC50 [1]: 8540 nM
- IC50 [2]: 103 nM

SMILES: Cn1ncnc1-c1ccc(CN(C(=O)c2cc3nc(N)c4c(c3[nH]2)COC4)[C@@H]2CCCc3cccnc32)nc1 [Example 25, (R)-5-amino-N-((5-(1-methyl-1H-1,2,4-triazol-5-yl)pyridin-2-yl)methyl)-N-(5,6,7,8-tetrahydroquinolin-8-yl)-6,8-dihydro-1H-furo[3,4-d]pyrrolo[3,2-b]pyridine-2-carboxamide]
- IC50 [1]: 2000 nM
- IC50 [2]: 96 nM

SMILES: CO[C@@H]1CCOC[C@H]1N(Cc1ccc(C(F)(F)F)cn1)C(=O)c1cc2nc(N)c3c(c2[nH]1)COC3 [Example 26, 5-amino-N-((3R,4R)-4-methoxytetrahydro-2H-pyran-3-yl)-N-((5-(trifluoromethyl)pyridin-2-yl)methyl)-6,8-dihydro-1H-furo[3,4-d]pyrrolo[3,2-b]pyridine-2-carboxamide]
- IC50 [1]: 1870 nM
- IC50 [2]: 14 nM

SMILES: CO[C@@H]1CCOC[C@H]1N(Cc1ccc(-c2ccccc2)cn1)C(=O)c1cc2nc(N)c3c(c2[nH]1)COC3 [Example 27, 5-amino-N-((3R,4R)-4-methoxytetrahydro-2H-pyran-3-yl)-N-((5-phenylpyridin-2-yl)methyl)-6,8-dihydro-1H-furo[3,4-d]pyrrolo[3,2-b]pyridine-2-carboxamide]
- IC50 [1]: 284 nM
- IC50 [2]: 2.4 nM

SMILES: CO[C@@H]1CCOC[C@H]1N(Cc1ccc(-c2ccncc2)cn1)C(=O)c1cc2nc(N)c3c(c2[nH]1)COC3 [Example 28, N-([3,4′-bipyridin]-6-ylmethyl)-5-amino-N-((3R,4R)-4-methoxytetrahydro-2H-pyran-3-yl)-6,8-dihydro-1H-furo[3,4-d]pyrrolo[3,2-b]pyridine-2-carboxamide]
- IC50 [1]: 1900 nM
- IC50 [2]: 11 nM

SMILES: Nc1nc2cc(C(=O)N(Cc3ccc(-c4ccncc4)cn3)Cc3c(F)cccc3F)[nH]c2c2c1COC2 [Example 29, N-([3,4′-bipyridin]-6-ylmethyl)-5-amino-N-(2,6-difluorobenzyl)-6,8-dihydro-1H-furo[3,4-d]pyrrolo[3,2-b]pyridine-2-carboxamide]
- IC50 [1]: 81 nM
- IC50 [2]: 1.3 nM

SMILES: Nc1nc2cc(C(=O)N(Cc3ccc(-c4c(F)cncc4F)cn3)Cc3c(F)cccc3F)[nH]c2c2c1COC2 [Example 30, 5-amino-N-((3′,5′-difluoro-[3,4′-bipyridin]-6-yl)methyl)-N-(2,6-difluorobenzyl)-6,8-dihydro-1H-furo[3,4-d]pyrrolo[3,2-b]pyridine-2-carboxamide]
- IC50 [1]: 22 nM
- IC50 [2]: 0.8 nM

SMILES: Nc1nc2cc(C(=O)N(Cc3ccc(-c4c(F)cncc4F)cn3)Cc3c(Cl)cccc3Cl)[nH]c2c2c1COC2 [Example 31, 5-amino-N-(2,6-dichlorobenzyl)-N-((3′,5′-difluoro-[3,4′-bipyridin]-6-yl)methyl)-6,8-dihydro-1H-furo[3,4-d]pyrrolo[3,2-b]pyridine-2-carboxamide]
- IC50 [1]: 7.1 nM
- IC50 [2]: 1.2 nM

SMILES: N#Cc1ccc(CN(Cc2c(F)cccc2F)C(=O)c2cc3nc(N)c4c(c3[nH]2)COC4)nc1 [Example 32, 5-amino-N-((5-cyanopyridin-2-yl)methyl)-N-(2,6-difluorobenzyl)-6,8-dihydro-1H-furo[3,4-d]pyrrolo[3,2-b]pyridine-2-carboxamide]
- IC50 [1]: 451 nM
- IC50 [2]: 3.9 nM

SMILES: Nc1nc2cc(C(=O)N(Cc3c(F)cccc3F)CC3CC3)[nH]c2c2c1COC2 [Example 33, 5-amino-N-(cyclopropylmethyl)-N-(2,6-difluorobenzyl)-6,8-dihydro-1H-furo[3,4-d]pyrrolo[3,2-b]pyridine-2-carboxamide]
- IC50 [1]: > 10000 nM
- IC50 [2]: 210 nM

SMILES: CO[C@@H]1CCOC[C@H]1N(Cc1ncc(C(F)(F)F)cc1F)C(=O)c1cc2nc(N)c3c(c2[nH]1)COC3 [Example 34, 5-amino-N-((3-fluoro-5-(trifluoromethyl)pyridin-2-yl)methyl)-N-((3R,4R)-4-methoxytetrahydro-2H-pyran-3-yl)-6,8-dihydro-1H-furo[3,4-d]pyrrolo[3,2-b]pyridine-2-carboxamide]
- IC50 [1]: 1350 nM
- IC50 [2]: 7.4 nM

SMILES: C[C@H](c1ncccn1)N(Cc1ncc(C(F)(F)F)cc1F)C(=O)c1cc2nc(N)c3c(c2[nH]1)COC3 [Example 35, (R)-5-amino-N-((3-fluoro-5-(trifluoromethyl)pyridin-2-yl)methyl)-N-(1-(pyrimidin-2-yl)ethyl)-6,8-dihydro-1H-furo[3,4-d]pyrrolo[3,2-b]pyridine-2-carboxamide]
- IC50 [1]: 1530 nM
- IC50 [2]: 11 nM

SMILES: CO[C@@H]1CCOC[C@H]1N(Cc1ccc(C2CC2)cn1)C(=O)c1cc2nc(N)c3c(c2[nH]1)COC3 [Example 36, 5-amino-N-((5-cyclopropylpyridin-2-yl)methyl)-N-((3R,4R)-4-methoxytetrahydro-2H-pyran-3-yl)-6,8-dihydro-1H-furo[3,4-d]pyrrolo[3,2-b]pyridine-2-carboxamide]
- IC50 [1]: 445 nM
- IC50 [2]: 5.8 nM

SMILES: Nc1nc2cc(C(=O)N(Cc3ccc(C(F)(F)F)nn3)Cc3c(F)cccc3F)[nH]c2c2c1COC2 [Example 37, 5-amino-N-(2,6-difluorobenzyl)-N-((6-(trifluoromethyl)pyridazin-3-yl)methyl)-6,8-dihydro-1H-furo[3,4-d]pyrrolo[3,2-b]pyridine-2-carboxamide]
- IC50 [1]: 1680 nM
- IC50 [2]: 13 nM

SMILES: C[C@H]1OCc2c1c(N)nc1cc(C(=O)N(Cc3ccc(C(F)(F)F)cn3)Cc3ncccc3F)[nH]c21 [Example 38, (R)-5-amino-N-((3-fluoropyridin-2-yl)methyl)-6-methyl-N-((5-(trifluoromethyl)pyridin-2-yl)methyl)-6,8-dihydro-1H-furo[3,4-d]pyrrolo[3,2-b]pyridine-2-carboxamide]
- IC50 [1]: 665 nM
- IC50 [2]: 6.3 nM

SMILES: CN(C(=O)c1cc2nc(N)c3c(c2[nH]1)COC3)[C@H]1COCc2cc(C(F)(F)F)ccc21 [Example 39, (R)-5-amino-N-methyl-N-(7-(trifluoromethyl)isochroman-4-yl)-6,8-dihydro-1H-furo[3,4-d]pyrrolo[3,2-b]pyridine-2-carboxamide]
- IC50 [1]: > 10000 nM
- IC50 [2]: 1170 nM

SMILES: CN(C(=O)c1cc2nc(N)c3c(c2[nH]1)COC3)[C@@H]1COCc2cc(C(F)(F)F)ccc21 [Example 40, (S)-5-amino-N-methyl-N-(7-(trifluoromethyl)isochroman-4-yl)-6,8-dihydro-1H-furo[3,4-d]pyrrolo[3,2-b]pyridine-2-carboxamide]
- IC50 [1]: 2490 nM
- IC50 [2]: 13 nM
